Results from US20090137517A1, “SENSITIZING A CELL TO CANCER TREATMENT BY MODULATING THE ACTIVITY OF A NUCLEIC ACID ENCODING RPS27L PROTEIN” (Agency for Science, Technology and Research, priority 2006, published 2009).

How the values were obtained:
Type in all cases: cell-based, human
RPS27L protein = test: Western blot of RPS27L protein levels in HCT116 cells; conditions: ADR (1 μM), 5-FU (375 μM), nutlin-3 (10 μM)
Experimental: To investigate whether the p53-induced increase in RPS27L mRNA also gives rise to the increased protein levels, immunoblot analysis of p53 wild-type and p53 null HCT116 cells treated with ADR, 5-FU or nutlin-3, a small molecule MDM2 antagonist that directly activates p53 (Vassilev, L. T., Vu, B. T., et al. (2004) “In vivo activation of the p53 pathway by small-molecule antagonists of MDM2” Science, vol. 303, p. 844-848) was performed. […] To extend this observations to other cell lines and to other p53 stimuli, U2OS (human osteosarcoma cell line) and SH-SY5Y (human neuroblastoma cell line) cells (p53 wild type) as well as Saos-2 cells (human osteosarcoma cell line, p53-deficient) were treated with ADR, etoposide phosphate (VP16®) and 5-FU (FIG. 2B). […] Obviously, 5-FU treatment activates a posttranslational mechanism that causes RPS27L protein downregulation in spite of the increased mRNA expression.
Cells were harvested and lysed with RIPA buffer (50 mM Tris-HCl, pH7.4, 1 mM EDTA, 150 mM NaCl, 1% Nonidet P-40, 0.5% sodium deoxycholate and proteinase inhibitors). The lysates were clarified by centrifugation at 16,000×g for 15 minutes at 4° C. Protein concentrations were determined with the Bradford Protein Assay Kit (Bio-Rad). 20-50 μg protein samples were separated by SDS-PAGE, transferred onto an Immobilon membrane (Millipore) and blotted with antibodies. Anti-p53 and anti-p21 antibodies were from Santa Cruz; anti-MDM2 and anti-Puma antibodies were from Merck. The rabbit polyconal antibody to RPS27L was raised against a 14 amino acid peptide from human RPS27L (SEQ ID NO: 2: LHPSLEEEKKKHKK).

HCT116 cells [1] = test: BrdU incorporation / 7-amino-actinomycin D FACS analysis; conditions: for cells with a hyperploid DNA content (>4.v): ADR 24 hours
Experimental: Given the increased sensitivity to DNA damage upon RPS27L depletion, the inventors next investigated whether loss of RPS27L could impair the DNA damage checkpoint. […] However, parental cells underwent a dramatic decrease in DNA synthesis (from 85% to 11%) 24 hours after ADR treatment, whereas in HCT116 cells lacking RPS27L, this decrease in DNA synthesis was partially rescued (from 86% to 27%) (FIG. 5A).
Cells cycle analysis was performed by DNA content quantification. The cells were fixed with 70% ethanol and stained with propidium iodide (50 μg/ml) staining. The stained cells were analyzed by FACScalibur (BD Bioscience). For the BrdU incorporation assay and mitochondrial membrane potential detection, the BrdU Flow Kit and JC-1 staining kit (both from BD Bioscience) were used, respectively, following the instruction manual. Stained cells were analyzed by FACScalibur (BD Bioscience) and quantified by using CellQuest software (BD Bioscience).

HCT116 cells [2] = test: Cytokinesis blocked micronucleus (CBMN) assay; conditions: RPS27L-depleted HCT116 cells, ADR (1 μM) 24 h
Experimental: In order to examine DNA damage directly, the comet assay was used next. The comet assay is a single cell gel electrophoresis assay in which damaged DNA migrates to form a “comet tail” that is proportional to the amount of DNA damage (Collins, A. R. (2004) “The comet assay for DNA damage and repair: principles, applications, and limitations” Mol Biotechnol, vol. 26, p. 249-261). Cells were incubated with ADR for 24 h and were harvested and processed for the comet assay. […] We then investigated whether elevated DNA damage has caused chromosome instability. […]
After treatment with ADR, cells were incubated with cytochalasin B (Sigma, 5 μg/ml) for an additional 22 h. […] Fixed cells were dropped onto clean slides and stained with 3 μg/ml Acridine Orange (which differentially stains cytoplasm and nucleus) (Hande, M. P., et al. (1996) “Induction and persistence of cytogenetic damage in mouse splenocytes following whole-body X-irradiation analysed by fluorescence in situ hybridization. II. Micronuclei.” Int J Radiat Biol.; vol. 70(4), p. 375-83; Hande, M. P., et al. (1997) “Induction and persistence of cytogenetic damage in mouse splenocytes following whole-body X-irradiation analysed by fluorescence in situ hybridization. III. Chromosome malsegregation/aneuploidy” Mutagenesis, vol. […] One thousand binucleated cells were scored for each sample.

**Q.** Which results are given for `COc1cccc2c1C(=O)c1c(O)c3c(c(O)c1C2=O)C[C@@](O)(C(=O)CO)C[C@@H]3O[C@H]1C[C@H](N)[C@H](O)[C@H](C)O1` [ADR, adriamycin]?
**A.** RPS27L protein level (RPS27L protein): increased RPS27L protein levels; DNA synthesis (BrdU, cells in S-phase) (HCT116 cells [1]; HCT116 cells lacking RPS27L, 24 hours after ADR treatment (86% before)): 27%; cells with a hyperploid DNA content (>4.v) (HCT116 cells [1]; RPS27L-depleted HCT116 cells): 30%; cells with a hyperploid DNA content (>4.v) (HCT116 cells [1]; control HCT116 cells): 10.5%; hyperploid population (HCT116 cells [1]; p21-depleted HCT116 cells after ADR treatment): no increased hyperploid population; DNA synthesis (BrdU, cells in S-phase) (HCT116 cells [1]; parental (control) HCT116 cells, 24 hours after ADR treatment (85% before)): 11%; micronucleus frequency (HCT116 cells [2]): increased micronucleus frequency
